Data on one compound can be found in patent US6211209A, “Method of inhibiting connective tissue degradation” (Warner-Lambert Company, priority 1998, dated 2001).

One experiment concerns 92 kDa gelatinase. Briefly: Gelatin zymography of bovine nasal cartilage conditioned media: expression of 92 kDa gelatinase. The class given is cell-based. As for the experimental part:
To evaluate the effects of the compounds of the present invention on the expression of 72 kDa and 92 kDa gelatinases, samples obtained from the bovine nasal cartilage study (described above) were subjected to gelatin zymography.
Separating gels (8%) were made by combining 400 μL gelatin (25 mg/mL) with: 2.5 mL Tris (1.5 M); 100 μL SDS (10%); 2.6 mL acrylamide (30%); 10 μL TEMED; 4.6 mL dH2 O; 100 μL ammonium persulfate (10%). Stacking gels (4.5%) were formed by combining: 2.5 mL Tris (0.5 M); 100 μL SDS (10%); 1.5 mL acrylamide (30%); 10 μL TEMED; 5.8 mL dH2 O; 100 μL ammonium persulfate (10%).
Bovine nasal cartilage conditioned media was diluted (1:15) using sample buffer 1X (2% SDS, 15% glycerol, 0.01% bromophenol blue, 0.25M Trizma Base, pH 6.8). Thirty microliters of each of the diluted samples and molecular weight standards were subjected to electrophoresis at 4° C. under constant current conditions (20 mA of current/gel) using Tris/Glycine running buffer (0.5 M Trizma Base, pH 8.8 using glycine, 1% SDS) that was diluted 1:20 before use.
After completion of the electrophoretic procedure, the gel was first washed twice for 15 minutes in 2.5% Triton X-100. The gel was then rinsed with the gel incubation buffer (0.05 M Tris, pH 8.2, 0.005 M CaCl2, 0.5 μM ZnCl2) and incubated overnight in this buffer at 37° C. After the incubation period, the gel was stained for 30 minutes in 0.125% Coomassie and destained using 10% methanol/5% acetic acid destaining solution.

For experiment [1], the system named is human articular cartilage. The experiment in a line: Human articular cartilage assay: IL-1α-induced proteoglycan loss from osteoarthritic cartilage. Type of experiment: cell-based. As to conditions: for % Proteoglycan Release: 30 μM, with IL-1α, mean ± SE. From the text: Human articular cartilage was obtained from St. Joseph Hospital in Ypsilanti, Mich.; cell culture reagents from Gibco (Grand Island, N.Y.); human recombinant Interleukin-1α (IL1α) from Genzyme (Cambridge, Mass.); DMB from Polysciences (Warrington, Pa.); Falcon 24 well flat-bottom tissue culture plates from Becton Dickinson (Lincoln Park, N.Y.); Papain from Sigma (P-3125, St. Louis, Mo.); high purity dimethyl sulfoxide from Burdic & Jackson (081-1, Distributed by Baxter Healthcare, McGraw Park, Ill.); Sarstedt vials for 96-vial aluminum racks (Sarstedt, Newton, N.C.); Cetus Pro/Pette (Perkin Elmer, Norwalk, Conn.); Biomek 1000 (Beckman, Fullerton, Calif.)
The assay was performed in two phases. The cartilage pieces were first incubated with IL-1α in the presence of compound. The amount of proteoglycan released was then quantified by measuring chondroitin sulfate present in the media using the 1,9-Dimethylmethylene Blue Assay (DMB).
The articular cartilage used in this study was obtained from osteoarthritis patients undergoing total knee or hip replacment surgery. The ages of the patients ranged from 50 to 70 years. To establish cartilage organ cultures, uniform cartilage slices measuring 11 mm×11 mm were dissected from the underlying bone using a #20 scalpel blade and placed in isotonic saline. The cartilage slices were washed in Gey's balanced salt solution and placed (one piece/well) in Falcon 24 well flat-bottom tissue culture plates (Becton Dickinson, Lincoln Park, N.J.). The cartilage organ cultures were maintained in complete Ham's F-12 (supplemented with 10% fetal calf serum, 6.5 mg/mL Hepes, 58.5 μg/mL glutamine, 200 μg/mL MgSO4, 100 units/mL Pencillin G sodium, 100 μg/mL streptomycin sulfate, and 0.25 μg/mL amphotericin B) at 37° C. in a humidified atmosphere of 95% air and 5% CO2. The cartilage cultures were allowed to equilibrate in this medium for 4 to 5 days. Just before starting the experiment, the serum-containing spent medium was removed and cartilage cultures rinsed with 1 mL F-12 Nutrient Mixture (without phenol red) in order to remove residual FCS. Each treatment group was done in triplicate. […] All the media removed from cultures was collected and analyzed using the 1,9 DMB assay. At the end of experimental period, cartilage pieces were digested with papain and analysed using the 1,9 DMB assay.
The ability of a compound to inhibit proteoglycan release from cartilage pieces was quantified by measuring chondroitin sulfate. […] This color change was measured using a Titertek Multiscan MCC 340 plate reader at 540 nm. […] It was necessary to dilute (1:5, 1:10) the medium before a DMB assay was performed by adding 10 μL of collected media to 290 μL DMB (16 mg dye/L of 0.1 M formate buffer, pH 3.5, containing 5 mL ethanol) and reading at 540 nm. […]

What is called inhibition is the change of the read-out against control, counted positive when it falls. High values mean strong suppression, low ones little suppression. With `S=c1[nH]nc(-c2ccccc2Nc2ccccc2)o1` [Compound 1, 5-(2-Phenylamino-phenyl)-3H-[1,3,4]oxadiazole-2-thione], the “inhibiting expression of IL-1β-induced 92 kDa gelatinase” value in the experiment with 92 kDa gelatinase (various concentrations, IL-1β-induced, FIG. 1) is “effective in inhibiting expression of IL-1β-induced 92 kDa gelatinase in a dose-dependent manner”. Also, the “specificity of effects (92 kDa versus 72 kDa gelatinase)” value with 92 kDa gelatinase (versus 72 kDa gelatinase) is given as “specific to 92 kDa”. Also, the “% Proteoglycan Release” value amounted to 4.0 ± 0.2% in experiment [1] (48 hours, n = 3 (control 3.7, IL-1α 9.0)); 7.4 ± 0.4% in experiment [1] (96 hours, n = 3 (control 5.7, IL-1α 14.4)); 10.0 ± 0.8% in experiment [1] (144 hours, n = 3 (control 7.0, IL-1α 16.9)). Moreover, the inhibition at 30 µM in experiment [1] (over the course of the experiment, human osteoarthritic cartilage) was > 70%.
